The nature of data set [1]: Partition coefficient (Log P), shake-tube method, 1-octanol/water. It is filed as physicochemical. To be noted: room temperature. As for the experimental part: Saturation of the solvents was performed as follows. 1-octanol was agitated in the presence of water for 24 h at room temperature. mQ water was agitated in presence of 1-octanol for 24 h at room temperature. Then the solutions were left to equilibrate overnight at room temperature. Saturated solvents were collected, using syringes and needles, and stored at room temperature until further use.
Saturated water and saturated i-octanol were placed in a glass tube in the following ratios: Each tube contained the equivalent of 0.25 mg of cyclic T14. All tubes were then mixed for 4 h at room temperature. After agitation the tubes were left at room temperature to equilibrate.
The concentrations of cyclic T14 used for the standard curve were: 0.5 mg·ml^−1, 0.25 mg·ml^−1, 0.13 mg·ml^−1, 0.066 mg·ml^−1, 0.033 mg·ml^−1 and 0.016 mg/ml^−1. The absorbance of the standard curve was measured at 280 nm.
Both fractions of each sample were collected separately using a syringe with needle. The absorbance of all fractions was measured at 280 nm and the concentration of all the fraction was estimated based on the standard curve. The partition coefficient of cyclic T14 was calculated using the following equation: Log P=Log (Concentration in Octanol/Concentration in Water)
The results from each condition were averaged in order to obtain the Log P of cyclic T14.

Data set [2] concerns PC12 cells. As to the kind of experiment: Cell Counting Kit-8 (CCK-8) cell viability assay. To be noted: T30 5 uM, FIG. 15. It is filed as cell-based. The text has this: A Cell Counting Kit-8 (CCK-8) was used as an improvement of the SRB technique used before. By utilizing the highly water-soluble tetrazolium salt WST-8, CCK-8 produces a water-soluble formazan dye upon reduction in the presence of an electron carrier. WST-8 is reduced by dehydrogenases in cells to give a yellow colored product (formazan), which is soluble in the tissue culture medium. The amount of the formazan dye generated by the activity of dehydrogenases in cells is directly proportional to the number of living cells. PC12 cells are plated in 200 μl of complete growth medium the day before the experiment in 96 well plates. Treatments with T30 and NBP-14 are added and incubated for 1 hour in the incubator.
Subsequently, 100 μl of growth medium is removed and 10 μl of CCK-8 (Cell Counting Kit-8) solution is added. The plate is incubated for 2 hours in the incubator and then placed in the absorbance plate reader. The absorbance must be measured at 450 nm.
A general note: Formazan colour is commonly taken as a measure of viable cells.

The structures appear in SMILES notation. Residues, ends and D or L forms follow the SMILES beside them.

This note sets out measurements from US12139729B2, “Neurodegenerative disorders” (priority 2013, dated 2024).

As to `CSCC[C@@H]1NC(=O)[C@H](Cc2ccc(O)cc2)NC(=O)[C@H](CO)NC(=O)[C@H](CO)NC(=O)[C@H](Cc2c[nH]c3ccccc23)NC(=O)[C@H](CCCNC(=N)N)NC(=O)[C@H](Cc2c[nH]cn2)NC(=O)[C@H](Cc2ccccc2)NC(=O)[C@H](CCC(=O)O)NC(=O)[C@H](C)NC(=O)[C@H](CCCCN)NC(=O)[C@H](Cc2c[nH]c3ccccc23)NC(=O)[C@H](Cc2c[nH]cn2)NC(=O)[C@H](C(C)C)NC1=O` [Cyclic T14] (cyclo(AEFHRWSSYMVHWK)), in data set [1], the logP (usually the decadic logarithm of the partition coefficient of the neutral form, usually between octanol and water) is -0.59. Moreover, in data set [2], the “concentration range protective against T30 induced cell death” value is listed as “high nanomolar range”.
